In ChEMBL document CHEMBL1201862, “PubChem BioAssay data set” (2004):
The source made the active and inactive calls.

Columns and labels:
Phosphomannomutase 2 = Phosphomannomutase 2 (Homo sapiens, UniProt O15305); assay: Counter screen SAR assay for PMM2 inhibitors via a fluorescence intensity assay. [Related pubchem assays (depositor defined):AID1545, AID1574]
[1] = target: T1, Mannose-6-phosphate isomerase (Homo sapiens, UniProt P34949); assay: phosphomannose isomerase inhibition – biochemical, fluorescence intensity, confirmation (AID 1535)
T1 sequence (P34949 whole entry): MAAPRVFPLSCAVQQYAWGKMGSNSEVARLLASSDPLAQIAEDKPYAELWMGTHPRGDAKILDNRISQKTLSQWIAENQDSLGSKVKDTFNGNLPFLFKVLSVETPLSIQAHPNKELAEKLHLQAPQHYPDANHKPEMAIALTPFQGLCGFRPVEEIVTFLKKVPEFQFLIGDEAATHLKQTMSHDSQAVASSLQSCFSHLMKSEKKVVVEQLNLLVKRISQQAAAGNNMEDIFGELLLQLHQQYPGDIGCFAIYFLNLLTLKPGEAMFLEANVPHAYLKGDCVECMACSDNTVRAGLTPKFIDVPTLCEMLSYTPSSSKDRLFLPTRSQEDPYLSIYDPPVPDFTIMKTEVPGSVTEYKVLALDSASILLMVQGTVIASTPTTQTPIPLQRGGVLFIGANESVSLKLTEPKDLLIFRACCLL

[2] = Luminescence-based counterscreen assay for KLF5 inhibitors: dose response cell-based high throughput screening assay to identify cytotoxic compounds using the IEC-6 intestinal epithelial cell line. [Related pubchem assays: 1700 (Primary screen.), 1834 (Confirmation screen.), 1858 (Summary AID.), 1905 (Counterscreen.)]; format: functional
Tumor necrosis factor = Tumor necrosis factor (Homo sapiens, UniProt P01375); assay: analog potency on TNFa NF-kB signaling – cell-based, revised, SAR follow-up (AID 2337); format: functional
Sequence of Tumor necrosis factor (P01375 whole entry): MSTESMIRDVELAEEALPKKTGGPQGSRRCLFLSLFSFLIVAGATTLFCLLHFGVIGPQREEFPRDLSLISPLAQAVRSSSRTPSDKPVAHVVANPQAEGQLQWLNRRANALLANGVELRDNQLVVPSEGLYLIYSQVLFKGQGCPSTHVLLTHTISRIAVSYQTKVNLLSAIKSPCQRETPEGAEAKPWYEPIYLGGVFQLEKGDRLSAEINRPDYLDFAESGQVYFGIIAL

[3] = target: T2, Induced myeloid leukemia cell differentiation protein Mcl-1 (Homo sapiens, UniProt Q07820); format: functional
T2 sequence (Q07820 whole entry): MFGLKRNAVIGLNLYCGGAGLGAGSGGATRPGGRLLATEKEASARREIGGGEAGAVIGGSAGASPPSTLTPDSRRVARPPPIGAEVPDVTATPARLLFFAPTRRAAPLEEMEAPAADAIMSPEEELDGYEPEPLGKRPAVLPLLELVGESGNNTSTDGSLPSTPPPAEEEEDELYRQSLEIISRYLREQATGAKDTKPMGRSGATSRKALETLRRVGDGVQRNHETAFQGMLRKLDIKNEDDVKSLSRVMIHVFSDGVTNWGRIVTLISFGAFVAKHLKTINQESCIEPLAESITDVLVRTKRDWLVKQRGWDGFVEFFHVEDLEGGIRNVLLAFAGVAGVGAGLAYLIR

[4] = target: T3, Heat shock factor protein 1 (Mus musculus, UniProt P38532); assay: decrease of HSF1-responsive luciferase luminescence – cell-based, NIH3T3, dose retest, confirmation (AID 2382); format: functional;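 note: NIH3T3 fibroblasts with HSF1-driven luciferase reporter stressed by proteasome inhibitor MG132; luminescence from HSF1-driven luciferase expression after 8 hours of MG132 stress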
T3 sequence (P38532 whole entry): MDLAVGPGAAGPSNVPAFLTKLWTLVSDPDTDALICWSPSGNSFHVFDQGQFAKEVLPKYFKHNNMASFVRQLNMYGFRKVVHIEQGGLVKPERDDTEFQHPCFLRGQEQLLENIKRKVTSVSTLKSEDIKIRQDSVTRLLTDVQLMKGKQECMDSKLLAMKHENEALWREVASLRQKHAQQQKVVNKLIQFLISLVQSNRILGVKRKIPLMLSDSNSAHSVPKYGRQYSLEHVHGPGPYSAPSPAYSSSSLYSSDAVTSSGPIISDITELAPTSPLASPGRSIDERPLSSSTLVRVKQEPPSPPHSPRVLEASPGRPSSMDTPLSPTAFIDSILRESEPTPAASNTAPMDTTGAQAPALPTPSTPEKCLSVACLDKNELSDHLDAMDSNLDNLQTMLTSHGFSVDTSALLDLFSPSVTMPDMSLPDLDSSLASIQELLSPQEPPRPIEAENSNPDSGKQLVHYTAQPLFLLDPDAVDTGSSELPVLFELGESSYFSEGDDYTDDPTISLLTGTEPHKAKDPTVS

HEK293 = assay: cells; conditions: Homo sapiens;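 note: cells exposed to compound for 14 hours overnight before viability readout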
[5] = target: T4, COUP transcription factor 2 (Homo sapiens, UniProt P24468); assay: Luminescence-based cell-based high throughput dose response assay to identify inhibitors of COUP-TFII (NR2F2).; format: functional;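 note: HEK293 cells transiently cotransfected with COUP-TFII expression vector and reporter; luciferase reporter luminescence driven by COUP-TFII from the pX2-168 reporter plasmid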
T4 sequence (P24468 whole entry): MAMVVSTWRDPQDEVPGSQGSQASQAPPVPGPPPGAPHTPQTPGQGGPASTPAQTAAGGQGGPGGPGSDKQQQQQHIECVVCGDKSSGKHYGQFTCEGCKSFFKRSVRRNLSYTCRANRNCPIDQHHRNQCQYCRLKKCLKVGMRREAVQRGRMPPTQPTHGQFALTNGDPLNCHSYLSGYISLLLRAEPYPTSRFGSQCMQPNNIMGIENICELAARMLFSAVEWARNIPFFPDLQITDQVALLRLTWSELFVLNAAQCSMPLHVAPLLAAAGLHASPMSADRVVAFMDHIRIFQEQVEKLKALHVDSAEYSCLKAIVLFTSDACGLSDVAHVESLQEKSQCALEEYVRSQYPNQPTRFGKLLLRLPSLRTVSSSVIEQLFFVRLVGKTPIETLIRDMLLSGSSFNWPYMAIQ

[6] = target: Nucleotide-binding oligomerization domain-containing protein 1 (Homo sapiens, UniProt Q9Y239); assay: blockers of NOD1 pathway activity – revised, SAR follow-up (AID 2333); format: functional
Sequence of Nucleotide-binding oligomerization domain-containing protein 1 (Q9Y239 whole entry, the tested form may be a part): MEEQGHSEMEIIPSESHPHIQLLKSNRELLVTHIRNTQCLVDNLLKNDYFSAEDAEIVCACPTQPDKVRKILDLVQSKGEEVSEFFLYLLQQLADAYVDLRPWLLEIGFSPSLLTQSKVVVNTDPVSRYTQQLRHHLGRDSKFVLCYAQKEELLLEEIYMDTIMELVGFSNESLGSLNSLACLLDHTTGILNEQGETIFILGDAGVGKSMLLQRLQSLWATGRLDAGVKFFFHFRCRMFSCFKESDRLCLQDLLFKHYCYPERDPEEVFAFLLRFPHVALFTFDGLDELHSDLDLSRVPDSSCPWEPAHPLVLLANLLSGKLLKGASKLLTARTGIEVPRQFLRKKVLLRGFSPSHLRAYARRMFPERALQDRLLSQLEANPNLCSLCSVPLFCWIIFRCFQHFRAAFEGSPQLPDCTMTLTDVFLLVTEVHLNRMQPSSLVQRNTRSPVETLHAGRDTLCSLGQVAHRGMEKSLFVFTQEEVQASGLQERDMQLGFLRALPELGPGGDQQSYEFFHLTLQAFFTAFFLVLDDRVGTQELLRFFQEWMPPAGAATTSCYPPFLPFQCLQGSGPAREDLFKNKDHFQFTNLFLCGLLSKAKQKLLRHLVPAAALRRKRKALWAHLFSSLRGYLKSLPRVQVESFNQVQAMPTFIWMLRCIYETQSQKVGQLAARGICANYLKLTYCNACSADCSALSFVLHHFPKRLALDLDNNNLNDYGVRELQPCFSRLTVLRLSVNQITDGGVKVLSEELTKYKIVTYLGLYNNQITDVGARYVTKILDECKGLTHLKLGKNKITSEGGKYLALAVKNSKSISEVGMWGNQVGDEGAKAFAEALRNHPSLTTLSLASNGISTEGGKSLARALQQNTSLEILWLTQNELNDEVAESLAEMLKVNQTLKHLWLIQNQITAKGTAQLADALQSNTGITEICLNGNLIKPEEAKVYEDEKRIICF

[7] = target: T5, Tyrosine-protein phosphatase non-receptor type 22 (Homo sapiens, UniProt Q9Y2R2); assay: SAR LYP1 Fluorescent Assay using OMFP substrate for In Vitro dose response studies - Set 3. [Related pubchem assays (depositor defined):AID1779, AID1784, AID2140, AID2686]; format: functional
T5 sequence (Q9Y2R2 whole entry): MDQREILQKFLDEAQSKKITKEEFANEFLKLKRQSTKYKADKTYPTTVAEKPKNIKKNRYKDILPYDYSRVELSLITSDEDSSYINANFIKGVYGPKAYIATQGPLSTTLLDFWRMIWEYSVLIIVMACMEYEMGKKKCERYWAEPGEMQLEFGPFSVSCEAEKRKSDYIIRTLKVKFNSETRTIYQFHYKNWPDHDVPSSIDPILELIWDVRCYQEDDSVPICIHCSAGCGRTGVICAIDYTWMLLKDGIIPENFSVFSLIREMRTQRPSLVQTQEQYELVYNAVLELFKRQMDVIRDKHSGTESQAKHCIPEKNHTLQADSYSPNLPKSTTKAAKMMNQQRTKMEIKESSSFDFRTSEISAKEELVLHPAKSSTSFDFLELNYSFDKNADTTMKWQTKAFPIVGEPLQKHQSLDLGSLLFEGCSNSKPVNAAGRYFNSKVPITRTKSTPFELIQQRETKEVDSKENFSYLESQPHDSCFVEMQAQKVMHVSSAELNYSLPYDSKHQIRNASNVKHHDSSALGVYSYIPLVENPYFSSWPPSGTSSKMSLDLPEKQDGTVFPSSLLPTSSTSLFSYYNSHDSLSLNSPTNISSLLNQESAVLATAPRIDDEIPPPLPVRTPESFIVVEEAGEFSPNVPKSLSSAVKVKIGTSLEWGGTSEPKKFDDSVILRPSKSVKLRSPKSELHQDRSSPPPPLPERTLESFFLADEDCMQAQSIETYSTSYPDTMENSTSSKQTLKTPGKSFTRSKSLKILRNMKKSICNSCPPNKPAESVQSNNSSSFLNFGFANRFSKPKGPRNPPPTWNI

[8] = target: T6, Tyrosine-protein phosphatase non-receptor type 7 (Homo sapiens, UniProt P35236); format: functional
T6 sequence (P35236 whole entry): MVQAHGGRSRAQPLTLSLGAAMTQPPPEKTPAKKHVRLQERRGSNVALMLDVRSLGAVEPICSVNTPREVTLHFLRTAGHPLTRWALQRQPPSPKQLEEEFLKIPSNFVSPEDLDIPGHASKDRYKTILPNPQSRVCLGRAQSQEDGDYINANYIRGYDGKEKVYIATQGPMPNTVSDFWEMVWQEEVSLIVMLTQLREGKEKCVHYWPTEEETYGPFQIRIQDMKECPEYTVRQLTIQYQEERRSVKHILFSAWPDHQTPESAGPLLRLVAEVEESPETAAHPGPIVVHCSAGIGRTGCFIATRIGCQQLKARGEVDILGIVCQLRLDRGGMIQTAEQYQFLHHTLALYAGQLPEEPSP

SUMO E1/E2 = SUMO E1/E2 (Homo sapiens, UniProt P63279+Q9UBE0+Q9UBT2); assay: SAR analysis of SUMOylation using HTRF in an in-Vitro dose response assay. [Related pubchem assays (depositor defined):AID2006, AID2011, AID2018, AID2069, AID2658]; format: functional
[9] = target: Tyrosine-protein phosphatase non-receptor type 12 (Homo sapiens, UniProt Q05209); assay: SAR Selectivity Analysis of small molecule inhibitors of PEST using pCAP in a fluorescence assay. [Related pubchem assays (depositor defined):AID1779, AID1784, AID2135]; format: functional
Sequence of Tyrosine-protein phosphatase non-receptor type 12 (Q05209 whole entry): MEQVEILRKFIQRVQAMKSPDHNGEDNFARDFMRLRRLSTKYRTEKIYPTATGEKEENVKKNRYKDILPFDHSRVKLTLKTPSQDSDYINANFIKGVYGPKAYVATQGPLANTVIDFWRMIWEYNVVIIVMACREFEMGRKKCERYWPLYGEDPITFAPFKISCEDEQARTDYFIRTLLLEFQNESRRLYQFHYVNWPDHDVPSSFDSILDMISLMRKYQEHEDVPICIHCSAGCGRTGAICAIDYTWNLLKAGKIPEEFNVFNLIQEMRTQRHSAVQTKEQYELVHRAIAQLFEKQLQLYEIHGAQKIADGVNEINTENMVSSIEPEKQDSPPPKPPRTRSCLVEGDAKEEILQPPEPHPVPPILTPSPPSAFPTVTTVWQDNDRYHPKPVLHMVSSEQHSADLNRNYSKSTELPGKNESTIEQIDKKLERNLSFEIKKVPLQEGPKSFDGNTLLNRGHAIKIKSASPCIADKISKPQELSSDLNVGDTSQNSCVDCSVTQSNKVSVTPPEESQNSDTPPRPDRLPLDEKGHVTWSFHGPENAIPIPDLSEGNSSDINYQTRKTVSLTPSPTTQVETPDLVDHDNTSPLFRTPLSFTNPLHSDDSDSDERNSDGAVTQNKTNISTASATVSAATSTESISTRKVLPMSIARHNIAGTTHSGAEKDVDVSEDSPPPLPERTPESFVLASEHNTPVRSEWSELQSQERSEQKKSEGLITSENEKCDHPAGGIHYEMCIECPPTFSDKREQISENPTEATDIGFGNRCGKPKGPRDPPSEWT

[10] = target: T6, Tyrosine-protein phosphatase non-receptor type 7; assay: HTS HePTP Fluorescent Assay using OMFP substrate for In Vitro dose response studies. [Related pubchem assays (depositor defined):AID1059, AID1077, AID1784, AID2068, AID2085, AID435032, AID521]; format: functional
[11] = target: T6, Tyrosine-protein phosphatase non-receptor type 7; assay: inhibition of hematopoietic tyrosine phosphatase HePTP – biochemical, set 2, SAR follow-up (AID 449736); format: functional
[12] = target: Envelope glycoprotein gp160 (Human immunodeficiency virus 1, UniProt Q6QLK5); assay: cell-free HIV fusion peptide-binding blockers – biochemical, uHTS, fluorescence dequenching, […] (AID 1986)
Sequence of Envelope glycoprotein gp160 (Q6QLK5 whole entry, the tested form may be a part): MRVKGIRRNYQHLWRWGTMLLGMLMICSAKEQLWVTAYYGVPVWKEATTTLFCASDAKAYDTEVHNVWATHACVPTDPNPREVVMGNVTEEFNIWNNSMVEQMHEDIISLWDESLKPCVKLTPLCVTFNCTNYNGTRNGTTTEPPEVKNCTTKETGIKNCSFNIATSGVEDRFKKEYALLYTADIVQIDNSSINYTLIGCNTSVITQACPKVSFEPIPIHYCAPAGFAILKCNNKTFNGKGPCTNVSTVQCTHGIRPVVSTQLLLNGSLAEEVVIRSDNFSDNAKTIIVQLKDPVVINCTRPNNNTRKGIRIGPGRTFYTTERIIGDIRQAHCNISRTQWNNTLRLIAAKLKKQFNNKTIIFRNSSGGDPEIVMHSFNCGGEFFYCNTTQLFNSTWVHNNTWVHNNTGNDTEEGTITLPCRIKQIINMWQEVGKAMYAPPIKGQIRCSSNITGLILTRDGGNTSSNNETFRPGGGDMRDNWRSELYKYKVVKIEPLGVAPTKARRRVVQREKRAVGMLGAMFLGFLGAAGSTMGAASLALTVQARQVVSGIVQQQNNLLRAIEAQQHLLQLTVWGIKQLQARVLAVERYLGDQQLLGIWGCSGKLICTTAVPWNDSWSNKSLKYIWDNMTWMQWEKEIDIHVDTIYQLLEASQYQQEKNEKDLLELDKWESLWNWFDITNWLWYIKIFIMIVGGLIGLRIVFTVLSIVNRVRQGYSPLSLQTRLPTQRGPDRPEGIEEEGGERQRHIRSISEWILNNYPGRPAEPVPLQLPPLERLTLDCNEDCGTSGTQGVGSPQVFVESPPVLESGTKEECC

[13] = target: T5, Tyrosine-protein phosphatase non-receptor type 22; assay: SAR LYP1 Fluorescent Assay using OMFP substrate for In Vitro dose response studies - Set 2. [Related pubchem assays (depositor defined):AID1779, AID1784, AID2140, AID449726, AID488869]; format: functional
[14] = target: T5, Tyrosine-protein phosphatase non-receptor type 22; format: functional
[15] = target: T5, Tyrosine-protein phosphatase non-receptor type 22; assay: PubChem AID 2135
Bcl-2-like protein 1 = Bcl-2-like protein 1 (Homo sapiens, UniProt Q07817); assay: blockers of BCLXL peptide binding – biochemical, fluorescence polarization, 1536-well, selectivity assay for MCL1 inhibitor project, dose response (AID 2218)
Sequence of Bcl-2-like protein 1 (Q07817 whole entry): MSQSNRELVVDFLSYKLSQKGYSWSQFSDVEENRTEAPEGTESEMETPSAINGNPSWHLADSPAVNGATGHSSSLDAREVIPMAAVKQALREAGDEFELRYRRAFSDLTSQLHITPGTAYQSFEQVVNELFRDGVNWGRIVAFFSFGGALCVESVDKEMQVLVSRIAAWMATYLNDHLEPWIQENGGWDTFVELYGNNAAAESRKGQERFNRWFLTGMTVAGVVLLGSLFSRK

Genome polyprotein = Genome polyprotein (dengue virus type 2, UniProt P29990); assay: flavivirus cap methylation enzyme inhibition – biochemical, confirmation dose response, primary screen (AID 588689); format: functional
Nonstructural protein 1 = Nonstructural protein 1 (Influenza A virus, UniProt Q194T2); format: functional, Influenza A virus (A/California/07/2009(H1N1))
Sequence of Nonstructural protein 1 (Q194T2 whole entry): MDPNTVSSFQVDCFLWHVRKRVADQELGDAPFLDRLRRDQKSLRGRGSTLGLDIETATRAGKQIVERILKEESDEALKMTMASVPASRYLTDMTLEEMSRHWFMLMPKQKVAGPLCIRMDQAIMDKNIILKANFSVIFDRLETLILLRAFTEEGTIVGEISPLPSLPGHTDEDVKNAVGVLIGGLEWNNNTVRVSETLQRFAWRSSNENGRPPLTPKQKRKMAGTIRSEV

[16] = target: Eukaryotic translation initiation factor 4E (Mus musculus, UniProt P63073); assay: blockers of eIF4G binding by eIF4E – biochemical, TR-FRET, dose response (AID 855); format: functional;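 note: potency for disrupting eIF4E binding to eIF4GI seen as loss of FRET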
Sequence of Eukaryotic translation initiation factor 4E (P63073 whole entry): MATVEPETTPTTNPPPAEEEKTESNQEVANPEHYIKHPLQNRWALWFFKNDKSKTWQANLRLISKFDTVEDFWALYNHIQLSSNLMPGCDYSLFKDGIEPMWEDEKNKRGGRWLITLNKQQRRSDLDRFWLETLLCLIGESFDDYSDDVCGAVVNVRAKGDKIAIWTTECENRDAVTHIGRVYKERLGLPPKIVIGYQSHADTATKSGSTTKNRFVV

[17] = target: T7, Small ubiquitin-related modifier 1 (Homo sapiens, UniProt P63165); assay: SUMO1 protein interaction blockers, potency – biochemical, fluorescence polarization, uHTS hits, dose response (AID 624382); format: functional; conditions: read-out: IC50_Mean
T7 sequence (P63165 whole entry): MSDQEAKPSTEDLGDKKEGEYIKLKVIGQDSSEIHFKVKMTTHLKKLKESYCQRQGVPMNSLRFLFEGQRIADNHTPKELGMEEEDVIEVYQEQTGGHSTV

[18] = target: T5, Tyrosine-protein phosphatase non-receptor type 22; assay: SAR LYP1 Fluorescent Assay using pCAP substrate for In Vitro dose response studies - Set 2. [Related pubchem assays (depositor defined):AID1779, AID1784, AID2135, AID449727]; format: functional
[19] = target: T5, Tyrosine-protein phosphatase non-receptor type 22; format: functional; remark: listed apart in the source
[20] = target: T2, Induced myeloid leukemia cell differentiation protein Mcl-1; assay: blockers of MCL1 binding to BIM peptide – biochemical, fluorescence polarization, BIM-BH3 peptide, 1536-well, dose response (AID 2217)
[21] = target: T8, Small ubiquitin-related modifier 2 (Homo sapiens, UniProt P61956); assay: disruption of SUMO2 interaction with SIM peptide – biochemical, fluorescence polarization, uHTS hits, selectivity assay for SUMO1 interaction inhibitor project, dose response (AID 624385); format: functional; conditions: read-out: IC50_Mean
T8 sequence (P61956 whole entry): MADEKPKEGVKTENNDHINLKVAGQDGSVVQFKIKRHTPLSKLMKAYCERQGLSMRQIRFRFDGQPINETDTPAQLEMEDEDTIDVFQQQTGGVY

[22] = target: T5, Tyrosine-protein phosphatase non-receptor type 22; assay: PTPN22 lymphoid phosphatase activity blockers – biochemical, fluorescence intensity, uHTS (AID 1779)
[23] = target: T5, Tyrosine-protein phosphatase non-receptor type 22; assay: PubChem AID 2140
[24] = target: T5, Tyrosine-protein phosphatase non-receptor type 22; assay: LYP1 Fluorescent Assay using OMFP substrate for In Vitro dose response studies. [Related pubchem assays (depositor defined):AID1779, AID1784, AID435024]
[25] = target: T8, Small ubiquitin-related modifier 2; assay: SUMO2 binding disruption by SUMO1 hits – biochemical, FRET, human SUMO2, uHTS hits, selectivity assay for SUMO1 interaction inhibitor project, dose response (AID 624384); format: functional; conditions: read-out: IC50_Mean
[26] = target: T7, Small ubiquitin-related modifier 1; assay: SUMO1 protein-protein binding blockers, potency – biochemical, FRET, dose response (AID 624383); format: functional; conditions: read-out: IC50_Mean

Sequence of Phosphomannomutase 2 (O15305 whole entry): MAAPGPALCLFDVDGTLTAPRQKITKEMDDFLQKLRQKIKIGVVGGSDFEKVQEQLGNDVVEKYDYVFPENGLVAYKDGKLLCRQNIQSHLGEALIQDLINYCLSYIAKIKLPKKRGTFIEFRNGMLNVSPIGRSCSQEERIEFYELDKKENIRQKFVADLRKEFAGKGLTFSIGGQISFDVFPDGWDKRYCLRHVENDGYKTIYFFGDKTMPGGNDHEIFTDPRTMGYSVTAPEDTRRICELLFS

O=P(c1ccccc1)(c1nc2ccccc2s1)N1CCOCC1 (stereo not drawn)
IC50 (Phosphomannomutase 2): > 100 µM (inactive) | IC50 [1]: > 50 µM (inactive)

COC(=O)c1ccc2nc(Nc3nc4ccc(F)cc4s3)sc2c1
IC50 [2]: > 39.8 µM (not active) | IC50 (Tumor necrosis factor): 0.462 µM (active) | IC50 [3]: 1.11 µM (active) | EC50 [4]: < 0.16 µM (active) | IC50 (HEK293): > 20 µM (inactive) | IC50 [5]: 34 µM (inactive) | IC50 [6]: 1.91 µM (active)

Cc1c(Cl)cccc1NS(=O)(=O)c1ccc2c(c1)C1C=CCC1C(c1ccc(C(=O)O)cc1)N2 (stereo not drawn)
IC50 [7]: 15.8 µM (active) | IC50 [8]: 49.8 µM (active) | IC50 (SUMO E1/E2): 26.9 µM (active) | IC50 [9]: 2.36 µM (active) | IC50 [10]: 37.5 µM (active) | IC50 [11]: 3.93 µM (active) | IC50 [12]: 5.02 µM (active) | IC50 [13]: 43.7 µM (active) | IC50 [14]: 19.6 µM (active) | IC50 [15]: > 100 µM (inactive) | IC50 (Bcl-2-like protein 1): 50.8 µM (not active) | IC50 (Genome polyprotein): 62.2 µM (active) | IC50 (Nonstructural protein 1): 82.4 µM (active) | IC50 [16]: 14.2 µM (active) | IC50 [17]: 5.38 µM (active) | IC50 [18]: 45 µM (active) | IC50 [19]: 48.5 µM (active) | IC50 [20]: 6.54 µM (active) | IC50 [21]: 12.6 µM (active) | IC50 [22]: 20.8 µM (active) | IC50 [23]: 47.4 µM (active) | IC50 [24]: 39.9 µM (active) | IC50 [25]: 5.02 µM (active) | IC50 [26]: 23.6 µM (inactive)
